Laboratory results as given in patent US11028072B2, “2,4-diamino-6-ethylpyrimidine derivatives with antimalarial activities against Plasmodium falciparum” (National Science and Technology Development Agency, priority 2015, dated 2021).
Counter-ions that a name gives are not always drawn. Like-named read-outs stand apart in the source and are kept apart here.

Tests used:
[1] = target: T1, Human dihydrofolate reductase (hDHFR) (Homo sapiens, UniProt P00374); assay: Inhibition of human dihydrofolate reductase (Ki); assay type: biochemical; conditions: human DHFR; hydrochloride salts
T1 sequence (P00374 1-187): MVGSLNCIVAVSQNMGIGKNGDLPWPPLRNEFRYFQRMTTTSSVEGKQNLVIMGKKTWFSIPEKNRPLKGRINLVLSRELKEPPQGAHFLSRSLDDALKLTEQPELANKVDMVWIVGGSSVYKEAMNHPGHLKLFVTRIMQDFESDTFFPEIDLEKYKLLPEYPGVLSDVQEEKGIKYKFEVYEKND

in vitro = conditions: African green monkey
Text: (§1) In Vitro Antimalarial Activites Against P. falciparum and Cytotoxicity Towards Mammalian Cells (Vero Cells)

[2] = target: quadruple mutant N51I + C59R + S108N + I164L (QM) pfDHFR (Plasmodium falciparum, UniProt P13922, I164L/N51I); assay: Inhibition of quadruple mutant pfDHFR (Ki); assay type: biochemical
Sequence of quadruple mutant N51I + C59R + S108N + I164L (QM) pfDHFR (P13922 whole entry N51I/I164L): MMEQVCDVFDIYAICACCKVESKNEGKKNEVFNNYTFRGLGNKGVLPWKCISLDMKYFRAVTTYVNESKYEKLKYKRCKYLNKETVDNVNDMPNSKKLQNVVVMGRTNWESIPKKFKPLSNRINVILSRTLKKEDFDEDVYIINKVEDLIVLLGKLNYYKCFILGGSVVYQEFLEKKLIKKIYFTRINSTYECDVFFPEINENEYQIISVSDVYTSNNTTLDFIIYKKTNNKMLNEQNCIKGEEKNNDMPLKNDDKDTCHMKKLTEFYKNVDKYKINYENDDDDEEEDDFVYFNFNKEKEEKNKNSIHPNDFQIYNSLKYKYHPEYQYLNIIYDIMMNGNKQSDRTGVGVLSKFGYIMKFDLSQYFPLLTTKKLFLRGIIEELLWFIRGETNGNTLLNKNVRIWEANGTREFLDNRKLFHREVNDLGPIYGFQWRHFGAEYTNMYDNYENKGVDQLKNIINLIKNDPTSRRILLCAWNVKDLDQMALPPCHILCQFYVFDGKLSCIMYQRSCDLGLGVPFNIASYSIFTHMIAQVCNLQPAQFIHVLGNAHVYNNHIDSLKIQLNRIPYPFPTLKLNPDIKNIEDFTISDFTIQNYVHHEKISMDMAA
Method: (§2) The synthesized 2,4-diamino-6-ethylpyrimdine derivatives as the hydrochloride salts were tested for the activities against Plasmodium falciparum (P. falciparum) according to the standard methods. These include the inhibition of dihydrofolate reductase (DHFR) enzymes of P. falciparum including, wild type (WT) and quadruple mutants (N51IC59RS108NI164L) (QM). The inhibition was expressed as inhibition constants (Ki) in nano molar (nM).

wild type (WT) pfDHFR = wild type (WT) pfDHFR (Plasmodium falciparum, UniProt P13922, N108S/R59C); assay: Inhibition of wild type pfDHFR (Ki); assay type: biochemical
Sequence of wild type (WT) pfDHFR (P13922 whole entry R59C/N108S): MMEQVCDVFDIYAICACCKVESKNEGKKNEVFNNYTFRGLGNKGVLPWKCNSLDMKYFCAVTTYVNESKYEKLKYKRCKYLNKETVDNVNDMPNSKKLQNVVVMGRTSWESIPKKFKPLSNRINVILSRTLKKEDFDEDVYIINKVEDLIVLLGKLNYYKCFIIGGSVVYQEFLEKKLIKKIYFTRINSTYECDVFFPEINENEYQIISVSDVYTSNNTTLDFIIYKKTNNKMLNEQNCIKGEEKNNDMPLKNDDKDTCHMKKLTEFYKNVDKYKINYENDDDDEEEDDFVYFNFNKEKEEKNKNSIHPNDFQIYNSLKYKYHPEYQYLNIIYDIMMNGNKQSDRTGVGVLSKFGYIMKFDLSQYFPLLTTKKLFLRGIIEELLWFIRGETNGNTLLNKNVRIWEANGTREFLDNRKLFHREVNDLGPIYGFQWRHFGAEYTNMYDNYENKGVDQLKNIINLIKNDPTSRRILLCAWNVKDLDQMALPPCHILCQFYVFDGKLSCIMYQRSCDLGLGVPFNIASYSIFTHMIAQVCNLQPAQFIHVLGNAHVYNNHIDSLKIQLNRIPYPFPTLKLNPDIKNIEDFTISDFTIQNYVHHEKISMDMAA
Method: as §2

[3] = system: P. falciparum V1/S (N51I + C59R + S108 + I164L); assay: microbe, parasite or virus in culture; assay type: cell-based, Plasmodium falciparum; conditions: Plasmodium falciparum, read-out: IC50 P. falciparum V1/S
Text: as §1

[4] = system: P. falciparum TM4/8.2 (wild type); assay: microbe, parasite or virus in culture; assay type: cell-based, Plasmodium falciparum; conditions: Plasmodium falciparum, read-out: IC50 P. falciparum TM4/8.2 (WT)
Text: as §1

[5] = in vitro, quadruple mutant strain V1/S
[6] = in vitro, wild-type strain TM4/8.2

Molecule `CCc1nc(N)nc(N)c1OCc1cn(-c2ccc([N+](=O)[O-])cc2)nn1` (as salt: hydrochloride) [Compound 17] has a melting point of 209 to 210.5 °C.

In the case of `CCc1nc(N)nc(N)c1OCc1cn(-c2ccc(C(=O)OC)cc2)nn1` (as salt: hydrochloride) [Compound 18], the melting point is reported as 197.5 to 199 °C.

With `CCc1nc(N)nc(N)c1OCc1cn(-c2ccc(C(=O)O)cc2)nn1` (as salt: hydrochloride) [Compound 19] the melting point was 270.8 to 272 °C.

`CCc1nc(N)nc(N)c1OCCc1cn(-c2cccc(C(=O)O)c2)nn1` (as salt: hydrochloride) [Compound 20] showed a melting point of 246 to 247 °C.

In the case of `CCc1nc(N)nc(N)c1OCCc1cn(-c2ccc(C(=O)OC)cc2)nn1` (as salt: hydrochloride) [Compound 21], the melting point is reported as 190 to 192 °C.

`CCc1nc(N)nc(N)c1OCCc1cn(-c2ccc(C(=O)O)cc2)nn1` (as salt: hydrochloride) [Compound 22] gave a melting point of 270 to 271 °C.

Work on `CCc1nc(N)nc(N)c1OCCCc1cn(-c2cccc(C(=O)O)c2)nn1` (as salt: hydrochloride) [Compound 23] yielded a melting point of 230.5 to 231.5 °C.

In the case of `CCc1nc(N)nc(N)c1OCCCc1cn(-c2ccc(C(=O)OC)cc2)nn1` (as salt: hydrochloride) [Compound 24], the melting point is reported as 208 to 209.5 °C.

Work on `CCc1nc(N)nc(N)c1OCCCc1cn(-c2ccc(C(=O)O)cc2)nn1` (as salt: hydrochloride) [Compound 25] yielded a melting point of 239.5 to 241.5 °C.

With `CCc1nc(N)nc(N)c1OCc1cn(Cc2cccc(C(=O)O)c2)nn1` (as salt: hydrochloride) [Compound 26] the melting point was 170 to 171 °C.

For `CCc1nc(N)nc(N)c1OCc1cn(Cc2cc(F)c(O)c(F)c2)nn1` (as salt: hydrochloride) [Compound 27], the melting point was 224.7 to 226 °C.

In the case of `CCc1nc(N)nc(N)c1OCc1cn(Cc2ccc(O)cc2)nn1` (as salt: hydrochloride) [Compound 28], the melting point is reported as 224.2 to 225.2 °C.

With `CCc1nc(N)nc(N)c1OCc1cn(Cc2ccc(C(=O)O)cc2)nn1` (as salt: hydrochloride) [Compound 29] the melting point was 223.8 to 224.8 °C.

`CCc1nc(N)nc(N)c1OCCc1cn(Cc2ccc(O)cc2)nn1` (as salt: hydrochloride) [Compound 30] gave a melting point of 213 to 215 °C.

For `CCc1nc(N)nc(N)c1OCCCc1cn(Cc2ccc(C(=O)O)cc2)nn1` (as salt: hydrochloride) [Compound 32], the melting point was 211 to 212.5 °C.

With `CCc1nc(N)nc(N)c1OCc1cc(-c2ccccc2)no1` (as salt: hydrochloride) [Compound 33] the melting point was 221.5 to 222.5 °C.

Work on `CCc1nc(N)nc(N)c1OCc1cc(-c2ccc(F)cc2)no1` (as salt: hydrochloride) [Compound 34] yielded a melting point of 231 to 232 °C.

Work on `CCc1nc(N)nc(N)c1OCc1cc(-c2ccc(Cl)cc2)no1` (as salt: hydrochloride) [Compound 35] yielded a melting point of 230 to 231.5 °C.

For `CCc1nc(N)nc(N)c1OCc1cc(-c2ccc(Br)cc2)no1` (as salt: hydrochloride) [Compound 36], the melting point was 238 to 239.5 °C.

With `CCc1nc(N)nc(N)c1OCc1cc(-c2cccc(C(F)(F)F)c2)no1` (as salt: hydrochloride) [Compound 37] the melting point was 224 to 225.5 °C.

`CCc1nc(N)nc(N)c1OCc1cc(-c2cccc(OC)c2)no1` (as salt: hydrochloride) [Compound 38] showed a melting point of 211.5 to 212.5 °C.

In the case of `CCc1nc(N)nc(N)c1OCc1cc(-c2cccc([N+](=O)[O-])c2)no1` (as salt: hydrochloride) [Compound 39], the melting point is reported as 179.5 to 181.5 °C.

With `CCc1nc(N)nc(N)c1OCc1cc(-c2cccc(C(=O)O)c2)no1` (as salt: hydrochloride) [Compound 40] the melting point was 192 to 194 °C.

In the case of `CCc1nc(N)nc(N)c1OCc1cc(-c2ccc(C(F)(F)F)cc2)no1` (as salt: hydrochloride) [Compound 41], the melting point is reported as 173 to 174.5 °C.

Work on `CCc1nc(N)nc(N)c1OCc1cc(-c2ccc(OC)cc2)no1` (as salt: hydrochloride) [Compound 42] yielded a melting point of 214 to 216 °C.

Work on `CCc1nc(N)nc(N)c1OCc1cc(-c2ccc([N+](=O)[O-])cc2)no1` (as salt: hydrochloride) [Compound 43] yielded a melting point of 216 to 218 °C.

`CCc1nc(N)nc(N)c1OCc1cc(-c2ccc(C(=O)O)cc2)no1` (as salt: hydrochloride) [Compound 44] gave a melting point of 242 to 244 °C.

With `CCc1nc(N)nc(N)c1OCCCc1cc(-c2ccc(Cl)cc2)no1` (as salt: hydrochloride) [Compound 45] the melting point was 231.5 to 232.5 °C.

`CCc1nc(N)nc(N)c1OCCCc1cc(-c2cccc(C(F)(F)F)c2)no1` (as salt: hydrochloride) [Compound 46] gave a melting point of 216.5 to 218 °C.

Work on `CCc1nc(N)nc(N)c1OCCCc1cc(-c2cccc(C#N)c2)no1` (as salt: hydrochloride) [Compound 47] yielded a melting point of 252 to 253 °C.

Molecule `CCc1nc(N)nc(N)c1OCCCc1cc(-c2cccc(C(=O)OC)c2)no1` (as salt: hydrochloride) [Compound 48] has a melting point of 188 to 189.5 °C.

With `CCc1nc(N)nc(N)c1OCc1coc(-c2ccccc2)n1` (as salt: hydrochloride) [Compound 50] the melting point was 231 to 232 °C.

In the case of `CCc1nc(N)nc(N)c1OCc1coc(-c2cccc(C)c2)n1` (as salt: hydrochloride) [Compound 51], the melting point is reported as 225 to 226 °C.

`CCc1nc(N)nc(N)c1OCc1coc(-c2cccc([N+](=O)[O-])c2)n1` (as salt: hydrochloride) [Compound 52] showed a melting point of 221.5 to 222.5 °C.

`CCc1nc(N)nc(N)c1OCc1coc(-c2ccc(Cl)cc2)n1` (as salt: hydrochloride) [Compound 55] showed a melting point of 239 to 240 °C.

For `CCc1nc(N)nc(N)c1OCCc1coc(-c2ccccc2)n1` (as salt: hydrochloride) [Compound 58], the melting point was 254.5 to 255.5 °C.

`CCc1nc(N)nc(N)c1OCCc1coc(-c2ccc(C(=O)O)cc2)n1` (as salt: hydrochloride) [Compound 59] showed a melting point of 330 to 332 °C.

For `CCc1nc(N)nc(N)c1OCc1csc(-c2ccccc2)n1` (as salt: hydrochloride) [Compound 60], the melting point was 220 to 222 °C.

In the case of `CCc1nc(N)nc(N)c1OCc1csc(-c2cccc(C)c2)n1` (as salt: hydrochloride) [Compound 61], the melting point is reported as 232 to 233 °C.

In the case of `CCc1nc(N)nc(N)c1OCc1csc(-c2cccc([N+](=O)[O-])c2)n1` (as salt: hydrochloride) [Compound 62], the melting point is reported as 235 to 236.5 °C.

`CCc1nc(N)nc(N)c1OCc1csc(-c2cccc(C(=O)OC)c2)n1` (as salt: hydrochloride) [Compound 65] showed a melting point of 224.5 to 226.5 °C.

In the case of `CCc1nc(N)nc(N)c1OCc1csc(-c2ccc(C)cc2)n1` (as salt: hydrochloride) [Compound 67], the melting point is reported as 235 to 236 °C.

`CCc1nc(N)nc(N)c1OCc1csc(-c2ccc(OC)cc2)n1` (as salt: hydrochloride) [Compound 68] showed a melting point of 228 to 229 °C.

Work on `CCc1nc(N)nc(N)c1OCc1csc(-c2ccc(F)cc2)n1` (as salt: hydrochloride) [Compound 69] yielded a melting point of 226 to 227 °C.

Molecule `CCc1nc(N)nc(N)c1OCc1csc(-c2ccc(Cl)cc2)n1` (as salt: hydrochloride) [Compound 70] has a melting point of 230 to 232 °C.

With `CCc1nc(N)nc(N)c1OCc1csc(-c2ccc(Br)cc2)n1` (as salt: hydrochloride) [Compound 71] the melting point was 236 to 238 °C.

`CCc1nc(N)nc(N)c1OCc1csc(-c2ccc(C(=O)OC)cc2)n1` (as salt: hydrochloride) [Compound 74] showed a melting point of 217 to 219 °C.

Molecule `CCc1nc(N)nc(N)c1OCc1csc(-c2ccc(C(=O)O)cc2)n1` (as salt: hydrochloride) [Compound 75] has a melting point of 213 to 214 °C.

Work on `CCc1nc(N)nc(N)c1OCCc1csc(-c2ccccc2)n1` (as salt: hydrochloride) [Compound 76] yielded a melting point of 215 to 217 °C.

For `CCc1nc(N)nc(N)c1-c1cn(-c2ccccc2)nn1` [Compound 1], the “Ki hDHFR” value [1] was “High”, the IC50 (in vitro) was over 50 µM and the Ki [2] was 6.02 ± 0.772 µM. It also gave a Ki (wild type (WT) pfDHFR) of 0.0497 ± 0.00418 µM, an IC50 [3, 5] of over 50 µM and an IC50 [4, 6] of over 50 µM.

In the case of `CCc1nc(N)nc(N)c1-c1cn(Cc2ccccc2)nn1` [Compound 3], the Ki [1] is reported as 3.14 ± 0.242 µM, the IC50 (in vitro) is reported as over 50 µM and the Ki [2] is reported as 0.0139 ± 0.00198 µM. It also gave a Ki (wild type (WT) pfDHFR) of 0.0114 ± 0.00081 µM, an IC50 [3] of 19.9 ± 7.03 µM and an IC50 [4] of 3.57 ± 1.25 µM.

For `CCc1nc(N)nc(N)c1OCc1cc(-c2ccc(C(F)(F)F)cc2)no1` [Compound 41], the Ki [1] was over 100 µM, the IC50 (in vitro) was over 10 µM and the Ki (wild type (WT) pfDHFR) was 0.00429 ± 0.00031 µM. The IC50 [3, 5] was over 10 µM and the IC50 [4, 6] was 6.78 ± 2.21 µM.
